In US20060194235A1, “HLJ1 gene expression” (priority 2005, published 2006):

What was measured:
[1] = system: PCY3 cells; experiment: In vitro Matrigel invasion assay; assay type: cell-based, human; conditions: siRNA treated
Method: The metastatic potential of tumors depends, in part, on the ability of the tumor cells to invade through a basement membrane and migrate to distant sites. The ability of cells transfected with HLJ1 to penetrate a Matrigel™ membrane using an in vitro assay, which is a modified Boyden chamber assay, as described in Example 15, was determined as an index of the metastatic potential of these cells. The YY1 transfectant PCY3, which expressed a high level of HLJ1, reduced cell invasion capability to about 56% and about 61% of the levels of CL1-0 and mock transfectants, respectively (68).
In vitro Matrigel™ invasion assays were performed in 6.5-mm transwell chambers (8 μm pore size; Costar®). The transwell filters in the chambers were coated with Matrigel™ (Becton Dickinson, Franklin Lakes, N.J.) (58). After a 16 or 24 h incubation, the filter was gently removed from the chamber, and the noninvasive cells on the upper surface were removed by wiping with a cotton swab. The cells that invaded the Matrigel™ and attached to the lower surface of the filter were fixed with methanol and stained with Giemza solution (Sigma, St. Louis, Mo.). The number of cells attached to the lower surface of the polycarbonate filter was counted under a light microscope at 200× magnification. Five fields of adherent cells were randomly counted in each well and the results were numerically averaged. […]

[2] = system: HLJ1; experiment: siRNA knock-down of endogenous HLJ1 in the YY1 transfected cell line PCY3; assay type: cell-based, human; conditions: PCY3 cells
From the text: Inhibiting the ability of transfected cells to express HLJ1 can restore their invasive capacity. Small inhibiting RNA (siRNA) specific for HLJ1 decreased the endogenous HLJ1 RNA level in the YY1 transfected cell line, PCY3.
Two siRNA sequences were synthesized according to standard protocols (68). The sequence of HLJ1-A was […]. The sequence of HLJ1-D was […]. HLJ1-A and HLJ1-D reduced its expression by 64%. […] A negative control, scrambled siRNA, had no significant effect on HLJ1 expression or invasive capacity.

HLJ1-D: siRNA specific for HLJ1, sequence AAACGCTGATGGAAGGAGTTA (other strand not given here)
ability of PCY3 cells to invade through Matrigel, compared to PCC2 cells [1]: 87%
reduction of HLJ1 expression [2]: 64%
